Results: publication PMC4600319 (Malaria Journal, 2015)
Several values for one entry are separate records, joined by “and”; a condition that tells them apart may be missing. Equal entries are not always repeated. Where two headings read alike, the source gives them in different places. Each block holds one molecule with its values, some of them ahead of it.

Experiments:
[1] = Open-label, three-way, sequential, cross-over pharmacokinetic interaction study, plasma, non-compartmental analysis; format: in vivo, human (healthy Thai adults); conditions: for CL/F / Tmax / AUC(0-t) / half-life / AUC(0-inf) / Vd/F / Cmax / AUC0–12h: median (95 % CI); for Tmax / AUC(0-t) / half-life / AUC(0-inf) / Vd/F / Cmax / AUC0–12h: plasma; for half-life: read-out: t1/2z (converted); for Vd/F: read-out: Vz/F; for extrapolated AUC from the last blood sampling time to infinity (AUCt−∞) / inter-individual variability of plasma concentrations / inter-individual variability in AUC0−24h: in vivo; for t1/2z GMR (90 % CI): geometric mean ratio; for plasma concentration 1 h post-dose on Day 3: median
Description: This was an open-label, three-way, sequential, cross-over, pharmacokinetic study in healthy adult volunteers. […] Written informed consent for study participation was obtained from each subject before study. […] Consenting adults were screened for eligibility and a physical examination, electrocardiogram (ECG), and laboratory safety tests (haematology, biochemistry, urinalysis, and pregnancy status) were performed. Figure 1 summarizes the study design. The pharmacokinetic sampling was performed sequentially on three occasions. […] Ltd., China). Mefloquine doses were given as three tablets on Day 1 and two tablets on Day 2 (250 mg mefloquine per tablet, manufactured by Atlantic Pharmaceutical Ltd., China). There was a 2-months wash-out period between Period 1 and Period 2. Period 2: subjects received oral doses of LPV/r (400/100 mg), twice daily, for 14 days (27 doses). There was no washout between Period 2 and Period 3. […] Immediately after collection, all blood samples were centrifuged (1200×g, 10 min) and the plasma samples were stored at -80 °C until analysis. […] University. […] An Agilent 1260 LC system (Agilent Technologies, CA, USA) coupled with an API 5000 triple quadrupole mass spectrometer (Applied Biosystems/MDS SCIEX, Foster City, USA), with a TurboVTM ionization source (TIS) interface operated in the positive ion mode, was used for the multiple reaction monitoring LC-MS/MS analysis. […] Nitrogen gas was supplied from an AB-3G (Peak Scientific, Inchinnan, UK). […] Chromatographic separation was performed using an […] XDB C18 column (5 μm, 4.6 mm × 150 mm; Thermo Fisher Scientific, MA, USA) protected with an Eclipse XDB-C8 guard column (Thermo Electron Corporation, MA, USA). The gradient mobile phase consisted of a mixture of 10 mM ammonium acetate with 0.1 % glacial acetic acid and acetonitrile running at a flow rate of 0.7 mL/min. Total run time was 12 min. […] Measurement of plasma concentrations of mefloquine was performed using high performance liquid chromatography (HPLC) according to the method of Karbwang et al. with modifications. Chromatographic separation was performed on a Hypersil ODS column (5 μm, 4.6 mm × 250 mm; Thermo Fisher Scientific, MA, USA) protected with an Eclipse XDB-C8 guard column (Thermo Electron Corporation, MA, USA). […] The UV detector was set at the wavelength of 220 nm. […] This laboratory participates in the NIAID Clinical Pharmacology Quality Assurance Programme Proficiency Testing. Pharmacokinetic parameters were determined using a non-compartmental analysis using WinNonLin software (version 6.3, […], USA). […] The Cmax (maximum concentration); tmax (time of maximum concentration) were determined by direct inspection of the plasma concentration-time data. […] The extrapolated AUC from the last sampling time to infinity was estimated from Ct/elimination rate constant (lz). lz was calculated from at least five concentration-time points of elimination phase. Apparent oral clearance (CL/F) was calculated as dose/AUC0-∞. Volume of distribution (Vz/F) was calculated as CL/F/lz, and the terminal half-life (t1/2z) was calculated as 0.693/lz. […] Statistical analysis of the data was performed using SPSS version 16.0 (Gorichem, The Netherlands). Pharmacokinetic parameters are presented as median and 95 % confidence intervals (95 % CI). […] Comparison of the frequency of subjects with adverse events between the two groups was performed using a Chi-square test. Statistical significance level was set at a = 0.05 for all tests.

[2] = previous report, healthy Thai volunteers; cited from earlier work
[3] = 750 and 500 mg 24 h apart vs previous study in healthy Thai subjects, 750 and 500 mg 6 h apart (ref 47, 48)
[4] = both sexes, human, oral, 3-day artesunate-mefloquine with LPV/r 400/100 mg twice a day (Period 3), read-out: tmax
[5] = both sexes, human, oral, 3-day artesunate-mefloquine alone (Period 1)
[6] = both sexes, human, oral, 3-day artesunate-mefloquine with LPV/r (Period 3), read-out: Cmax
[7] = both sexes, human, oral, 3-day artesunate-mefloquine with LPV/r (Period 3)
[8] = both sexes, human, po, 3-day artesunate-mefloquine alone (Period 1), oral, read-out: Cmax
[9] = both sexes, human, 3-day artesunate-mefloquine alone (Period 1), oral, read-out: tmax
[10] = in the presence of LPV/r vs alone
[11] = LPV/r 400/100 mg twice daily alone (Period 2)
[12] = LPV/r with 3-day artesunate-mefloquine (Period 3)
[13] = both sexes, human, oral, LPV/r 400/100 mg twice daily alone (Period 2), read-out: Cmax
[14] = both sexes, human, oral, LPV/r 400/100 mg twice daily alone (Period 2)
[15] = both sexes, human, oral, LPV/r with 3-day artesunate-mefloquine (Period 3), read-out: AUC0–12h
[16] = both sexes, human, oral, LPV/r with 3-day artesunate-mefloquine (Period 3)
[17] = in the presence of artesunate-mefloquine vs LPV/r alone
[18] = with artesunate-mefloquine vs LPV/r alone
[19] = both sexes, human, oral, 3-day artesunate-mefloquine alone (Period 1), read-out: AUC0–24h
[20] = both sexes, human, oral, 3-day artesunate-mefloquine with LPV/r (Period 3), read-out: AUC0–24h
[21] = in the presence of steady-state LPV/r vs alone

CL/F ([1]; 3-day artesunate-mefloquine alone (Period 1)): 1.08 (0.78, 1.37) L/h
CL/F ([1]; 3-day artesunate-mefloquine with LPV/r (Period 3)): 1.67 (1.03, 2.30) L/h
lower CL/F relative to previous study [1, 3]: 33.4%
smaller Vz/F relative to previous study [1, 3]: 40%
Tmax [1, 4]: 33 h
AUC(0-t) ([1]; both sexes, human, oral, 3-day artesunate-mefloquine alone (Period 1), read-out: AUC0–48h): 952 µg·h/mL
half-life [1, 5]: 344 h
AUC(0-inf) [1, 5]: 1160 µg·h/mL
Vd/F [1, 5]: 9.24 L/kg
AUC(0-t) ([1]; both sexes, human, oral, 3-day artesunate-mefloquine with LPV/r (Period 3), read-out: AUC0–48h): 678 µg·h/mL
Cmax [1, 6]: 2340 ng/mL
half-life [1, 7]: 336 h
AUC(0-inf) [1, 7]: 751 µg·h/mL
Vd/F [1, 7]: 12.8 L/kg
Cmax [1, 8]: 2900 ng/mL
Tmax [1, 9]: 33 h
decrease in AUC0−48h [1, 10]: 28.7%
decrease in AUC0−168h [1, 10]: 37.1%
decrease in AUC0−∞ [1, 10]: 35.2%
decrease in Cmax [1, 10]: 19.3%
increase in CL/F [1, 10]: 54.6%
increase in Vz/F [1, 10]: 37.9%
reduction in Cmax and systemic exposure [1, 10]: 19–37%
extrapolated AUC from the last blood sampling time to infinity (AUCt−∞) [1]: less than 10%
inter-individual variability of plasma concentrations [1]: 34.2 to 96.9%
t1/2z GMR (90 % CI) ([1]; with LPV/r vs alone): 1.14 (0.90, 1.45)
SMILES: OC(c1cc(C(F)(F)F)nc2c(C(F)(F)F)cccc12)C1CCCCN1 (centres unmarked) [Mefloquine, mefloquine]
90 % CI of the GMR of AUC0−168h vs bioequivalent range of 0.8-1.25 ([1]; combination vs alone): outside the acceptable bioequivalent range
90 % CI of the GMR of AUC0−∞ vs bioequivalent range of 0.8-1.25 ([1]; combination vs alone): outside the acceptable bioequivalent range
90 % CI of the GMR of Cmax vs bioequivalent range of 0.8-1.25 ([1]; combination vs alone): outside the acceptable bioequivalent range

AUC0–12h [1, 11]: 8.11 (5.71, 10.50) μg h/mL
Tmax [1, 11]: 4.0 (3.1, 4.8) h
CL/F [1, 11]: 9.27 (4.74, 13.80) L/h
Tmax [1, 12]: 4.0 (3.1, 4.8) h
CL/F [1, 12]: 21.24 (8.71, 33.77) L/h
Cmax [1, 13]: 1530 ng/mL
AUC(0-inf) [1, 14]: 10.8 µg·h/mL
Vd/F [1, 14]: 0.97 L/kg
half-life [1, 14]: 4.3 h
AUC(0-t) [1, 15]: 4.49 µg·h/mL
Cmax ([1]; both sexes, human, oral, LPV/r with 3-day artesunate-mefloquine (Period 3), read-out: Cmax): 680 ng/mL
AUC(0-inf) [1, 16]: 4.71 µg·h/mL
Vd/F [1, 16]: 1.75 L/kg
half-life [1, 16]: 3.7 h
decrease in AUC0–12h [1, 17]: 44.6%
decrease in AUC0−∞ [1, 17]: 56.3%
decrease in Cmax [1, 17]: 54.9%
increase in CL/F [1, 17]: 129.1%
increase in Vz/F [1, 17]: 80.4%
extrapolated AUC from the last blood sampling time to infinity (AUCt−∞) [1]: less than 5%
inter-individual variability of plasma concentrations [1]: 21.3 to 62.9%
t1/2z GMR (90 % CI) [1, 18]: 0.87 (0.68, 1.11)
SMILES: CC(C)c1nc(CN(C)C(=O)N[C@H](C(=O)N[C@@H](Cc2ccccc2)C[C@H](O)[C@H](Cc2ccccc2)NC(=O)OCc2cncs2)C(C)C)cs1 [Ritonavir, ritonavir]
90 % CI of the GMR of AUC0−12h vs bioequivalent range of 0.8-1.25 ([1]; combination vs alone): outside the acceptable bioequivalent range
90 % CI of the GMR of AUC0−∞ vs bioequivalent range of 0.8-1.25 ([1]; combination vs alone): outside the acceptable bioequivalent range
90 % CI of the GMR of Cmax vs bioequivalent range of 0.8-1.25 ([1]; combination vs alone): outside the acceptable bioequivalent range

AUC0–12h [1, 11]: 103.32 (82.62, 124.01) μg h/mL
Tmax [1, 11]: 4.0 (3.1, 4.8) h
Cmax [1, 12]: 9.62 (7.99, 11.24) μg/mL
Cmax [1, 13]: 12400 ng/mL
AUC(0-inf) [1, 14]: 229 µg·h/mL
Vd/F [1, 14]: 0.45 L/kg
half-life [1, 14]: 9.8 h
AUC(0-t) [1, 15]: 90.5 µg·h/mL
AUC(0-inf) [1, 16]: 130 µg·h/mL
Vd/F [1, 16]: 0.53 L/kg
half-life [1, 16]: 6.6 h
decrease in Cmax [1, 17]: 22% and 22.1%
increase in CL/F [1, 17]: 75.4%
extrapolated AUC from the last blood sampling time to infinity (AUCt−∞) [1]: less than 5%
inter-individual variability of plasma concentrations [1]: 50.6 to 127.6%
t1/2z GMR (90 % CI) [1, 18]: 0.71 (0.45, 1.13)
SMILES: Cc1cccc(C)c1OCC(=O)N[C@@H](Cc1ccccc1)[C@@H](O)C[C@H](Cc1ccccc1)NC(=O)[C@H](C(C)C)N1CCCNC1=O [Lopinavir, lopinavir]
90 % CI of the GMR of Cmax vs bioequivalent range of 0.8-1.25 ([1]; combination vs alone): outside the acceptable bioequivalent range

The remaining lines, values behind:

SMILES: C[C@H]1[C@@H](O)O[C@@H]2O[C@@]3(C)CC[C@H]4[C@H](C)CC[C@@H]1[C@@]24OO3 [Dihydroartemisinin, dihydroartemisinin]
reduction in the AUC ([1]; LPV/r co-administration): 50%
plasma concentration 1 h post-dose on Day 3 ([1]; artesunate given with LPV/r): 310 ng/mL
plasma concentration 1 h post-dose on Day 3 ([1]; artesunate-mefloquine without LPV/r): 580 ng/mL
Tmax [1, 4]: 2 h
AUC(0-t) [1, 19]: 2.37 µg·h/mL
half-life [1, 5]: 4.02 h
AUC(0-inf) [1, 5]: 2.68 µg·h/mL
AUC(0-t) [1, 20]: 0.99 µg·h/mL
Cmax [1, 6]: 310 ng/mL
half-life [1, 7]: 9.99 h
AUC(0-inf) [1, 7]: 1.37 µg·h/mL
Cmax [1, 8]: 580 ng/mL
Tmax [1, 9]: 2 h
90 % CI of the GMR of AUC0−24h vs bioequivalent range of 0.8-1.25 ([1]; combination vs alone): outside the acceptable bioequivalent range
90 % CI of the GMR of Cmax vs bioequivalent range of 0.8-1.25 ([1]; combination vs alone): outside the acceptable bioequivalent range
decrease in AUC0-24 h (as nmol h/mL) relative to the increase in artesunate AUC ([1]; in the presence of LPV/r): about 180%
decrease in AUC0−∞ [1, 10]: ~48.8%
decrease in Cmax [1, 10]: about 46.6%
decrease in AUC0−24h [1, 21]: ~58.2%
increase in t1/2z [1, 21]: 148.5%
extrapolated AUC from the last blood sampling time to infinity (AUCt−∞) [1]: less than 5%
inter-individual variability in AUC0−24h [1]: 80.2%
t1/2z GMR (90 % CI) ([1]; with LPV/r vs alone): 1.89 (1.00, 3.58)
t1/2z [2]: 0.74 h

SMILES: C[C@H]1[C@H](OC(=O)CCC(=O)O)O[C@@H]2O[C@@]3(C)CC[C@H]4[C@H](C)CC[C@@H]1[C@@]24OO3 [Artesunate, artesunate]
Tmax [1, 4]: 1 h
AUC(0-t) [1, 19]: 0.2 µg·h/mL
AUC(0-t) [1, 20]: 0.24 µg·h/mL
Cmax [1, 6]: 140 ng/mL
Cmax [1, 8]: 110 ng/mL
Tmax [1, 9]: 1 h
90 % CI of the GMR of AUC0−24h vs bioequivalent range of 0.8-1.25 ([1]; combination vs alone): outside the acceptable bioequivalent range
increase in Cmax and systemic exposure [1, 10]: 45–80%
inter-individual variability in AUC0−24h [1]: 54.4%
